Source: patent publication US6432938B1, “19-nor-cholane steroids as neurochemical initators of change in human hypothalamic function” (Pherin Corporation, priority 1996, dated 2002)

Legend:
vomeronasal organ (VNO) [1] = experiment: Reflex/autonomic responses (RF, CF, BT, EMG, EEG) to stimulation of the VNO with airborne substance; format: in vivo, human; details: for BT (body temperature): compound found to have an effect / EEG-T (electroencephalogram from temporal region): compound found to have an effect / RF (respiratory frequency): compound found to have an effect / EEG-V (electroencephalogram from vertex): compound found to have an effect / EMG (electromyogram): compound found to have an effect / CF (cardiac frequency): compound found to have an effect: 2 second pulses to VNO, number in cell = compound with effect; for gender dimorphic effects: males versus females, all recorded parameters
Procedure: (§1) Electrical signals from the recording electrode are fed to a DC amplifier after which they are digitized, computer monitored, and stored. The peak-to-peak amplitude of the signals is measured, and the area under the depolarization wave is integrated, while continuously monitoring the signal both on the computer screen and on a digital oscilloscope. Artifacts produced by respiratory movements are deleted by training the subjects to practice mouth breathing with velopharyngeal closure. Samples of vomeropherins in concentration of 25-800 fmoles are delivered in the continuous air stream for durations from 300 milliseconds to 1 second. Usually, intervals of 3 to 5 minutes separated each series of short test pulses. All components of the lines carrying the test stimuli are made of Teflon©, glass or stainless steel and are carefully cleaned and sterilized before each use. Activity was recorded using standard electroencephalographic (EEG) electrodes placed at positions Cz-Al and Tz-Al of the international […] system; the ground electrode was placed on the mastoid process. Skin temperature (ST) was recorded by a small (1.0 mm) thermistor probe placed in the right ear lobe. Respiratory frequency (RF) was measured with an adjustable strain gauge placed around the lower thorax. All electrical signals were DC amplified, digitized (MP-100, Biopac systems) and continuously monitored utilizing a computer.
Studies were conducted to determine the central nervous system (CNS) reflex responses to vomeropherin stimulation of the VNO. The sexually dimorphic local responses induced by vomeropherins were sometimes mirrored in the autonomic response of male & female subjects.
Fourteen different substances were tested against a control. All substances were diluted in propylene glycol, in 2 ml glass bottles coded with numbers. The solvent (propylene glycol) was used as control.
The airborne substances were delivered to the vomeronasal organ (VNO) in 2 second pulses, using a miniprobe. Several parameters were recorded Electrovomerogram (EVG), respiratory frequency (RF), cardiac frequency (ECG), electrodermal activity (EDA), body temperature (BT), electromyogram (EMG), and electroencephalogram from vertex (EEG-V) and temporal region (EEG-T).
A summary of the results is shown in Table I. Each number indicates the compound found to have an effect in females or in males, on the parameter indicated in the upper row of the table. (For the equivalence of each number to the corresponding compound in males, and in females, see the compound numbers).

vomeronasal organ (VNO) [2] = experiment: Electrovomerogram (EVG) after airborne delivery of substance to the vomeronasal organ; format: in vivo, human; details: 2 second pulses to VNO, diluted in propylene glycol, number in cell = compound with effect
From the text: The stimulation and recording system consists of a “multifunctional miniprobe” described elsewhere (Monti-Bloch, L. and Grosser, B. l. (1991) “Effect of putative pheromones on the electrical activity of the human vomeronasal organ and olfactory epithelium,” J. Steroid Biochem. Molec. Bio. 39:573582). The recording electrode is a 0.3 mm silver ball attached to a small (0.1 mm) silver wire insulated with Teflon© the surface of the electrode is first treated to produce a silver chloride interface, and is then covered with gelatin It is positioned within a small caliber Teflon© catheter (dia=5 mm) such that the tip of the electrode protrudes approximately 2 mm. The Teflon© catheter is 10 cm in length and constitutes the terminal extension for a multichannel delivery system which delivers a continuous air stream carrying discreet pulses of chemosensory stimuli. The air stream first passes into a small chamber and is bubbled through a solution containing either a vomeropherin or an olfactant in a diluent or the diluent alone. A solenoid is used to rapidly redirect the air stream from the chamber to a route which bypasses the chamber. This creates a discreet pulse of stimulant in the air stream. A second, outer Teflon© tube with a diameter of 2 mm surrounds the catheter-electrode assemblage, and its central end is connected to an aspirator that provides continuous suction of 3 ml/s. This concentric arrangement of the outer suction tube allows the emitted chemosensory stimuli to be localized to an area we call a “minifield” (approx. dia=1 mm), and it avoids diffusion of substances either to the area outside the intended stimulation site or into the respiratory system. The entire stimulating and recording assemblage may be positioned either on the neurosensory epithelium within the VNo, or on the surface of the olfactory or respiratory epithelium.
Electro-vomeronasogram (EVG): Recordings are carried out in a quiet room with the subject supine; the multi-functional miniprobe is initially stabilized within the nasal cavity using a nasal retractor placed in the vestibule. Reference and ground electrodes consist of silver discs (8 mm), both of which are positioned on the glabella.
The entrance to the VNO, or vomeronasal pit, is identified by first dilating the nasal aperture and vestibule. A 6×magnifying binocular loupe with halogen illumination is then used to introduce the tip of the Teflon© catheter and recording electrode assemblage into the VNo opening where it is stabilized at an approximate depth of 1 mm within the vomeronasal passage. Optimal placement of the recording electrode is signaled after testing for an adequate depolarization in response to a test substance.
as §1, with “All electrical signals were DC amplified, digitized (MP-100, Biopac systems) and continuously monitored utilizing a computer.” left out

CCCC=C1CCC2C3CCc4cc(O)ccc4C3=CCC12C (stereo not drawn) [Compound 1, 19,21-BISNORCHOLA-1,3,5(10),9(11),17(20)-PENTAEN-3-OL]
BT (body temperature): compound found to have an effect (vomeronasal organ (VNO) [1]; males (M)): 1 | EVG (electrovomerogram): compound found to have an effect (vomeronasal organ (VNO) [2]; males (M)): 1

CCCCC1=CC[C@H]2[C@@H]3CCC4=C(CC[C@H](O)C4)[C@H]3CC[C@]12C [Compound 2, 19,21-BISNORCHOLA-5(10),16-DIEN-3beta-OL]
EEG-T (electroencephalogram from temporal region): compound found to have an effect (vomeronasal organ (VNO) [1]; females (F)): 2 | BT (body temperature): compound found to have an effect (vomeronasal organ (VNO) [1]; males (M)): 2 | RF (respiratory frequency): compound found to have an effect (vomeronasal organ (VNO) [1]; males (M)): 2 | gender dimorphic effects (vomeronasal organ (VNO) [1]): gender specific | EVG (electrovomerogram): compound found to have an effect (vomeronasal organ (VNO) [2]; females (F)): 2 | EVG (electrovomerogram): compound found to have an effect (vomeronasal organ (VNO) [2]; males (M)): 2

CCCC=C1CC[C@H]2[C@@H]3C=Cc4cc(O)ccc4[C@H]3CC[C@]12C [Compound 3, 19,21-BISNORCHOLA-1,3,5(10),6,17(20)-PENTAEN-3-OL]
EEG-V (electroencephalogram from vertex): compound found to have an effect (vomeronasal organ (VNO) [1]; females (F)): 3 | BT (body temperature): compound found to have an effect (vomeronasal organ (VNO) [1]; males (M)): 3 | EVG (electrovomerogram): compound found to have an effect (vomeronasal organ (VNO) [2]; females (F)): 3 | EVG (electrovomerogram): compound found to have an effect (vomeronasal organ (VNO) [2]; males (M)): 3

CCCCC1=CC[C@H]2[C@@H]3CCC4=CC(=O)CC[C@]4(O)[C@H]3CC[C@]12C [Compound 4, 10beta-HYDROXY-19,21-BISNORCHOLA-4,16-DIEN-3-ONE]
RF (respiratory frequency): compound found to have an effect (vomeronasal organ (VNO) [1]; females (F)): 4 | BT (body temperature): compound found to have an effect (vomeronasal organ (VNO) [1]; males (M)): 4 | EMG (electromyogram): compound found to have an effect (vomeronasal organ (VNO) [1]; males (M)): 4

CCCC=C1CCC2C3CCC4=CC(O)CCC4C3CCC12C (stereo not drawn) [Compound 5, 19,21-BISNORCHOLA-4,17(20)-DIEN-3beta-OL]
RF (respiratory frequency): compound found to have an effect (vomeronasal organ (VNO) [1]; females (F)): 5 | EVG (electrovomerogram): compound found to have an effect (vomeronasal organ (VNO) [2]; females (F)): 5

CC(O)CO (stereo not drawn) [Compound 6, PROPYLENE GLYCOL]
EEG-T (electroencephalogram from temporal region): compound found to have an effect (vomeronasal organ (VNO) [1]; females (F)): 6 | EVG (electrovomerogram): compound found to have an effect (vomeronasal organ (VNO) [2]; females (F)): 6

CCCC=C1CC[C@H]2c3ccc4cc(O)ccc4c3CC[C@]12C [Compound 7, 19,21-BISNORCHOLA-1,3,5,7,9,17(20)-HEXAEN-3-OL]
BT (body temperature): compound found to have an effect (vomeronasal organ (VNO) [1]; males (M)): 7 | EEG-T (electroencephalogram from temporal region): compound found to have an effect (vomeronasal organ (VNO) [1]; males (M)): 7 | EVG (electrovomerogram): compound found to have an effect (vomeronasal organ (VNO) [2]; females (F)): 7 | EVG (electrovomerogram): compound found to have an effect (vomeronasal organ (VNO) [2]; males (M)): 7

C=C(CCC)[C@H]1CC[C@H]2[C@@H]3CCc4cc(O)ccc4[C@H]3CC[C@]12C [Compound 8, 19-NORCHOLA-1,3,5(10),20-TETRAEN-3-OL]
CF (cardiac frequency): compound found to have an effect (vomeronasal organ (VNO) [1]; females (F)): 8 | EMG (electromyogram): compound found to have an effect (vomeronasal organ (VNO) [1]; females (F)): 8 | EEG-V (electroencephalogram from vertex): compound found to have an effect (vomeronasal organ (VNO) [1]; males (M)): 8

CCCC=C1CCC2C3=CCc4cc(O)ccc4C3CCC12C (stereo not drawn) [Compound 9, 19,21-BISNORCHOLA-1,3,5(10),7,17(20)-PENTAEN-3-OL]
CF (cardiac frequency): compound found to have an effect (vomeronasal organ (VNO) [1]; females (F)): 9

CCCCC1=CC[C@H]2[C@@H]3CCC4=C(CC[C@@H](O)C4)[C@H]3CC[C@]12C [Compound 10, 19,21-BISNORCHOLA-5(10),16-DIEN-3alpha-OL]
CF (cardiac frequency): compound found to have an effect (vomeronasal organ (VNO) [1]; females (F)): 10 | EEG-T (electroencephalogram from temporal region): compound found to have an effect (vomeronasal organ (VNO) [1]; females (F)): 10 | EEG-T (electroencephalogram from temporal region): compound found to have an effect (vomeronasal organ (VNO) [1]; males (M)): 10 | EEG-V (electroencephalogram from vertex): compound found to have an effect (vomeronasal organ (VNO) [1]; males (M)): 10 | gender dimorphic effects (vomeronasal organ (VNO) [1]): gender specific

CCCCC1=CC[C@H]2[C@@H]3CCc4cc(OC)ccc4[C@H]3CC[C@]12C [Compound 11, 3-METHOXY-19,21-BISNORCHOLA-1,3,5(10),16-TETRAENE]
CF (cardiac frequency): compound found to have an effect (vomeronasal organ (VNO) [1]; females (F)): 11 | EEG-T (electroencephalogram from temporal region): compound found to have an effect (vomeronasal organ (VNO) [1]; females (F)): 11 | EEG-V (electroencephalogram from vertex): compound found to have an effect (vomeronasal organ (VNO) [1]; females (F)): 11 | CF (cardiac frequency): compound found to have an effect (vomeronasal organ (VNO) [1]; males (M)): 11 | EEG-T (electroencephalogram from temporal region): compound found to have an effect (vomeronasal organ (VNO) [1]; males (M)): 11 | EEG-V (electroencephalogram from vertex): compound found to have an effect (vomeronasal organ (VNO) [1]; males (M)): 11

CCCCC1=CCC2C3CCC4=C(CCC(=O)C4)C3CCC12C (stereo not drawn) [Compound 12, 19,21-bisnorchola-5(10),16-dien-3-one]
CF (cardiac frequency): compound found to have an effect (vomeronasal organ (VNO) [1]; males (M)): 12
